# Legend:
# [1] = tested on: MCF7 cells; test: Cell viability assay ([…]-GLO, 6-day treatment); type: cell-based; details: Homo sapiens, MCF7, 144 h; MCF-7 cells, 6 days, CTG; read-out: Inhibition of Cancerous Cells IC50 MCF-7
# Protocol: A compound provided herein was evaluated for its anticancer activity in MCF7 and T47D cells. MCF7 and T47D cells were cultured at 37° C. in a humidified 5% C02 environment in MEM or RPMI, supplemented with 10% FBS with insulin, respectively. The cells were plated in 384-well microplates at a density of 1,000 cells per well in their respective maintenance media. The cells were treated with the compound by a 10-point dose response curve for 6 days, during which, the medium and compound were refreshed once. After the 6-day treatment, the cell viability was assessed using […]-GLO (CTG) reagent. Luminescence was measured with a microplate reader.
# [2] = molecular target: T1, ERα (Homo sapiens, UniProt P03372); test: Protein degradation assay: ERα in MCF-7 cells via western blot; type: cell-based; details: 6 h; for ERα Protein Degradation 1 nM: 1 nM compound; for ERα Protein Degradation 10 nM: 10 nM compound; for ERα Protein Degradation 100 nM: 100 nM compound
# T1 construct: degrading an ERα in MCF-7 cells via a western blot; endogenous in cells; host or cells: MCF-7
# T1 sequence (P03372 1-595): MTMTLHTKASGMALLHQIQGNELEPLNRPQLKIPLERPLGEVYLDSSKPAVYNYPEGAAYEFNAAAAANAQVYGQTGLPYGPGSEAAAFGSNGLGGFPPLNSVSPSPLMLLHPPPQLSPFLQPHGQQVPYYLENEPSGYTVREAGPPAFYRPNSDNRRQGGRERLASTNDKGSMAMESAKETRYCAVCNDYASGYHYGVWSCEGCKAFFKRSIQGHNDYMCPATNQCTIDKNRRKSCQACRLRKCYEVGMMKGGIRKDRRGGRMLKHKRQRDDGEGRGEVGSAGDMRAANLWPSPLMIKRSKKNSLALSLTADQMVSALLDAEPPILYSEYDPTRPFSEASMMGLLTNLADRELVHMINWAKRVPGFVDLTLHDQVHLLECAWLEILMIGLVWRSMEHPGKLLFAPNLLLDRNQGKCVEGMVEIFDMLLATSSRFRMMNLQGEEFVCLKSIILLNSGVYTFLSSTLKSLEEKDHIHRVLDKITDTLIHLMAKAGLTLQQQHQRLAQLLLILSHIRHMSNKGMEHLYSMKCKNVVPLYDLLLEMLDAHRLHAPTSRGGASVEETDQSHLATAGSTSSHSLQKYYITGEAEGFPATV
# Protocol: A compound provided herein was assessed for its activity in degrading an ERα in MCF-7 cells via a western blot. The MCF7 cells were cultured at 37° C. in a humidified 5% C02 environment in MEM supplemented with 10% FBS with insulin. The cells were seeded in 12-well plates at a density of 300,000 cells per well in maintenance media. Cells were treated with the compound at predetermined concentrations (e.g., 1 nM, 10 nM, 100 nM, and 1 μM) for 6 h. The cells were then washed in PBS and the whole cells were lysed in a cell lysis buffer and incubated for 15 minutes on ice. Cell debris was removed by high-speed centrifugation and the cleared whole cell lysates were prepared for further analysis by a western blot. The whole cell protein extracts were separated on SDS-polyacrylamide gels, transferred to nitrocellulose membranes, and probed with primary antibodies, including anti-ERα antibody and GAPDH antibody for loading control. The membranes were subsequently washed and probed with secondary antibodies for chemiluminescence, followed by imaging on a BIORAD CHEMIDOC Imaging System. The results are summarized in Table 2, where “A” represents a percentage degradation value of no less than 50%; “B” represents a percentage degradation value of less than 50% and no less than 25%; “C” represents a percentage degradation value of less than 25% and no less than 10%; and “D” represents a percentage degradation value of less than 10%.
Compound,IC50 [1],ERα Protein Degradation 1 nM [2],ERα Protein Degradation 10 nM [2],ERα Protein Degradation 100 nM [2]
"O=C1CCC(N2Cc3sc(C4CCN(CC5CCN(c6ccc([C@@H]7c8ccc(O)cc8CC[C@@H]7c7ccccc7)cc6)CC5)CC4)cc3C2=O)C(=O)N1 (stereo partly drawn) [Compound A10, 3-(2-(1-((1-(4-((1R,2S)-6-hydroxy-2-phenyl-1,2,3,4-tetrahydronaphthalen-1-yl)phenyl)piperidin-4-yl)methyl)piperidin-4-yl)-4-oxo-4,6-dihydro-5H-thieno[2,3-c]pyrrol-5-yl)piperidine-2,6-dione]",0.82 nM,D (a percentage degradation value of less than 10%),D (a percentage degradation value of less than 10%),D (a percentage degradation value of less than 10%)
"O=C1CCC(N2Cc3sc(C4CCN(CCCCOc5ccc([C@@H]6c7ccc(O)cc7CC[C@@H]6c6ccccc6)cc5)CC4)cc3C2=O)C(=O)N1 (stereo partly drawn) [Compound A20, 3-(2-(1-(4-(4-((1R,2S)-6-Hydroxy-2-phenyl-1,2,3,4-tetrahydronaphthalen-1-yl)-phenoxy)butyl)piperidin-4-yl)-4-oxo-4,6-dihydro-5H-thieno[2,3-c]pyrrol-5-yl)piperidine-2,6-dione]",0.05 nM,D (a percentage degradation value of less than 10%),D (a percentage degradation value of less than 10%),D (a percentage degradation value of less than 10%)
"Cn1nc([C@@H]2CCC(=O)NC2=O)c2ccc(OCC(=O)N3CCN(CCCCOc4ccc([C@@H]5c6ccc(O)cc6CC[C@@H]5c5ccccc5)cc4)CC3)cc21 [Compound B23, (S)-3-(6-(2-(4-(4-(4-((1R,2S)-6-Hydroxy-2-phenyl-1,2,3,4-tetrahydronaphthalen-1-yl)phenoxy)butyl)piperazin-1-yl)-2-oxoethoxy)-1-methyl-1H-indazol-3-yl)piperidine-2,6-dione]",0.22 nM,B (a percentage degradation value of less than 50% and no less than 25%),B (a percentage degradation value of less than 50% and no less than 25%),D (a percentage degradation value of less than 10%)
"Cn1nc(C2CCC(=O)NC2=O)c2ccc(OCC(=O)N3CCN(CCCCOc4ccc([C@H]5c6ccc(O)cc6CC[C@H]5c5ccccc5)cc4)CC3)cc21 (stereo partly drawn) [Compound B24, 3-(6-(2-(4-(4-(4-((1S,2R)-6-Hydroxy-2-phenyl-1,2,3,4-tetrahydronaphthalen-1-yl)phenoxy)butyl)piperazin-1-yl)-2-oxoethoxy)-1-methyl-1H-indazol-3-yl)piperidine-2,6-dione]",66 nM,C (a percentage degradation value of less than 25% and no less than 10%),C (a percentage degradation value of less than 25% and no less than 10%),C (a percentage degradation value of less than 25% and no less than 10%)
"Cn1nc(C2CCC(=O)NC2=O)c2ccc(N3CCN(CC4CCN(c5ccc([C@@H]6c7ccc(O)cc7CC[C@@H]6c6ccccc6)cc5)CC4)CC3)cc21 (stereo partly drawn) [Compound B25, 3-(6-(4-((1-(4-((1R,2S)-6-Hydroxy-2-phenyl-1,2,3,4-tetrahydronaphthalen-1-yl)-phenyl)piperidin-4-yl)methyl)piperazin-1-yl)-1-methyl-1H-indazol-3-yl)piperidine-2,6-dione]",1.2 nM,C (a percentage degradation value of less than 25% and no less than 10%),B (a percentage degradation value of less than 50% and no less than 25%),D (a percentage degradation value of less than 10%)
"Cn1nc(C2CCC(=O)NC2=O)c2ccc(OCC(=O)N3CCN(CC4CCN(c5ccc([C@@H]6c7ccc(O)cc7CC[C@@H]6c6ccccc6)cc5)CC4)CC3)cc21 (stereo partly drawn) [Compound B27, 3-(6-(2-(4-((1-(4-((1R,2S)-6-Hydroxy-2-phenyl-1,2,3,4-tetrahydronaphthalen-1-yl)phenyl)piperidin-4-yl)methyl)piperazin-1-yl)-2-oxoethoxy)-1-methyl-1H-indazol-3-yl)-piperidine-2,6-dione]",0.99 nM,D (a percentage degradation value of less than 10%),B (a percentage degradation value of less than 50% and no less than 25%),D (a percentage degradation value of less than 10%)
"O=C1CCC(c2ccc(OCC(=O)N3CCN(CCCCOc4ccc([C@H]5c6ccc(O)cc6CC[C@H]5c5ccccc5)cc4)CC3)cc2)C(=O)N1 (stereo partly drawn) [Compound B44, 3-(4-(2-(4-(4-(4-((1S,2R)-6-Hydroxy-2-phenyl-1,2,3,4-tetrahydronaphthalen-1-yl)phenoxy)butyl)piperazin-1-yl)-2-oxoethoxy)phenyl)piperidine-2,6-dione]",107 nM,B (a percentage degradation value of less than 50% and no less than 25%),C (a percentage degradation value of less than 25% and no less than 10%),C (a percentage degradation value of less than 25% and no less than 10%)
"O=C1CCN(c2ccc(OCC(=O)N3CCN(CCCCOc4ccc([C@H]5c6ccc(O)cc6CC[C@H]5c5ccccc5)cc4)CC3)cc2)C(=O)N1 [Compound B45, 1-(4-(2-(4-(4-(4-((1S,2R)-6-Hydroxy-2-phenyl-1,2,3,4-tetrahydronaphthalen-1-yl)phenoxy)butyl)piperazin-1-yl)-2-oxoethoxy)phenyl)dihydropyrimidine-2,4(1H,3H)-dione]",88 nM,C (a percentage degradation value of less than 25% and no less than 10%),C (a percentage degradation value of less than 25% and no less than 10%),C (a percentage degradation value of less than 25% and no less than 10%)
"CC1(Cc2ccc(OCCCCN3CCN(C(=O)COc4ccc5c(c4)CN(C4CCC(=O)NC4=O)C5=O)CC3)cc2)C(c2ccc(O)cc2)=Nc2ccc(O)cc21 (stereo not shown) [Compound D3, 3-(5-(2-(4-(4-(4-((5-Hydroxy-2-(4-hydroxyphenyl)-3-methyl-3H-indol-3-yl)-methyl)phenoxy)butyl)piperazin-1-yl)-2-oxoethoxy)-1-oxoisoindolin-2-yl)piperidine-2,6-dione]",569 nM,D (a percentage degradation value of less than 10%),D (a percentage degradation value of less than 10%),D (a percentage degradation value of less than 10%)
"Cn1nc(C2CCC(=O)NC2=O)c2ccc(OCC(=O)N3CCN(CCCCOc4ccc(CC5(C)C(c6ccc(O)cc6)=Nc6ccc(O)cc65)cc4)CC3)cc21 (stereo not shown) [Compound D5, 3-(6-(2-(4-(4-(4-((5-Hydroxy-2-(4-hydroxyphenyl)-3-methyl-3H-indol-3-yl)-methyl)phenoxy)butyl)piperazin-1-yl)-2-oxoethoxy)-1-methyl-1H-indazol-3-yl)piperidine-2,6-dione]",136 nM,C (a percentage degradation value of less than 25% and no less than 10%),D (a percentage degradation value of less than 10%),C (a percentage degradation value of less than 25% and no less than 10%)

# — patent US20240368121A1, “ESTROGEN RECEPTOR DEGRADERS, PHARMACEUTICAL COMPOSITIONS THEREOF, AND THEIR THERAPEUTIC APPLICATIONS” (BioTheryX, Inc., priority 2021, published 2024)
